Results on 1 molecule are retold here after article PMC11597089, “Kratom Alkaloids: A Blood–Brain Barrier Specific Membrane Permeability Assay-Guided Isolation and Cyclodextrin Complexation Study” (Molecules, 2024).

One data set can be described thus: ACE complex stability, α-CD. Type of data set: physicochemical. The following applies: 30 mM phosphate buffer pH 7.4, 25 °C, 15 kV, 215 nm. On the procedure:
(§1) To investigate the CD complexation behavior of the four kratom alkaloids, we aimed to develop an ACE method for a systematic comparative study. […] To ensure sufficient buffer capacity and to avoid excessive current and Joule heat generation, the buffer concentration was set to 30 mM, and the applied voltage was 15 kV.
(§2) The ACE experiments were performed by using Agilent 7100 and HP^3DCE instruments (Agilent Technologies, Waldbronn, Germany). Untreated fused silica capillaries (total length of 48.5 cm, effective length of 40 cm, inner diameter of 50 μm) were purchased from Agilent Technologies. The new capillaries were conditioned with a 1 M NaOH wash for 1 h, followed by a 30 min wash each with 0.1 M NaOH and purified water. Prior to all runs, the capillary was preconditioned by rinsing with background electrolyte for 3 min. During the measurements, 30 mM phosphate buffer at pH 7.4 (30 mM Na2HPO4-NaOH) was used. The background electrolyte contained CDs at various concentrations. Stock solutions of the studied kratom alkaloids (mitragynine, paynantheine, speciogynine, speciociliatine) were prepared separately in methanol (1 mg/mL), and, right before the measurements, appropriate dilutions with purified water were used to prepare the sample solutions, applying 0.1% DMSO as the electroosmotic flow (EOF) marker. The samples were injected hydrodynamically at 40 mbar for 3 s. The positive polarity voltage was set to 15 kV, and the capillary was set to 25 °C. The electropherograms were recorded at four wavelengths (200 nm, 210 nm, 215 nm, and 220 nm), and the data were evaluated at 215 nm. In each case, three parallel measurements were performed. The measurements were evaluated using Origin and CEval software (v. 0.6i3).
(§3) In order to determine the complex stability constants that characterized the strength of the complexes, the first step was to determine the effective mobility of the analyte at specific CD concentrations. Triangular peaks caused by electromigration dispersion are often observed in ACE measurements.
(§4) Assuming a 1:1 complexation ratio and that the equilibrium CD concentration is almost equal to the total CD concentration, a relationship between the effective mobility relative to the EOF and the complex stability constant can be described by Function (4) (4) μeff=μA+μACDKstabCD/1+KstabCD where µeff is the effective mobility of the analyte, µA and µACD are the free and complexed analyte mobilities, [CD] is the concentration of the selector, and Kstab is the complex stability constant.
(§5) In order to calculate the exact, apparent, averaged complex stability constant values, viscosity correction and ionic strength correction were used.
As for `CC[C@@H]1CN2CCc3c([nH]c4cccc(OC)c34)[C@H]2C[C@@H]1/C(=C\OC)C(=O)OC` [Speciociliatine, speciociliatine], the “complex stability constant (Kstab) with α-CD” value came to 22 ± 3 M⁻¹.

A further data set is described as follows: ACE complex stability, β-CD. Format: physicochemical. The following applies: 30 mM phosphate buffer pH 7.4, 25 °C, 15 kV, 215 nm. As to the method:
as §1, §2, §3, §4, §5
As to `CC[C@@H]1CN2CCc3c([nH]c4cccc(OC)c34)[C@H]2C[C@@H]1/C(=C\OC)C(=O)OC` [Speciociliatine, speciociliatine], the “complex stability constant (Kstab) with β-CD” value worked out at 35 ± 3 M⁻¹.

A short description of the next data set: ACE complex stability, γ-CD. As to conditions: 30 mM phosphate buffer pH 7.4, 25 °C, 15 kV, 215 nm. Format: physicochemical. As to the method: as §1, §2, §3, §4, §5
For `CC[C@@H]1CN2CCc3c([nH]c4cccc(OC)c34)[C@H]2C[C@@H]1/C(=C\OC)C(=O)OC` [Speciociliatine, speciociliatine], the “complex stability constant (Kstab) with γ-CD” value came out at 15 ± 1 M⁻¹.

The nature of another data set: ACE complex stability, RAME-β-CD. Format: physicochemical. The following applies: randomly methylated-β-CD DS~12, 30 mM phosphate buffer pH 7.4, 25 °C. As to the method:
as §1, §2, §3, §4, §5
For `CC[C@@H]1CN2CCc3c([nH]c4cccc(OC)c34)[C@H]2C[C@@H]1/C(=C\OC)C(=O)OC` [Speciociliatine, speciociliatine], the “complex stability constant (Kstab) with RAME-β-CD” value was found to be 20 ± 2 M⁻¹.

A short description of a further data set: ACE complex stability, CM-β-CD. As to conditions: carboxymethylated-β-CD DS~3, 30 mM phosphate buffer pH 7.4, 25 °C. Type of data set: physicochemical. As to the method: as §1, §2, §3, §4, §5
Turning to `CC[C@@H]1CN2CCc3c([nH]c4cccc(OC)c34)[C@H]2C[C@@H]1/C(=C\OC)C(=O)OC` [Speciociliatine, speciociliatine], the “complex stability constant (Kstab) with CM-β-CD” value is 230 ± 20 M⁻¹.

Another data set in a line: ACE complex stability, CM-γ-CD. Format: physicochemical. As to conditions: carboxymethylated-γ-CD DS~4, 30 mM phosphate buffer pH 7.4, 25 °C. On the procedure:
as §1, §2, §3, §4, §5
As for `CC[C@@H]1CN2CCc3c([nH]c4cccc(OC)c34)[C@H]2C[C@@H]1/C(=C\OC)C(=O)OC` [Speciociliatine, speciociliatine], the “complex stability constant (Kstab) with CM-γ-CD” value was 120 ± 12 M⁻¹.

A further data set is described as follows: ACE complex stability, Sualfadex. Type of data set: physicochemical. As to conditions: hexakis-(6-deoxy-6-(2-carboxyethyl)thio)-α-CD, 30 mM phosphate buffer pH 7.4, 25 °C. On the procedure:
as §1, §2, §3, §4, §5
As to `CC[C@@H]1CN2CCc3c([nH]c4cccc(OC)c34)[C@H]2C[C@@H]1/C(=C\OC)C(=O)OC` [Speciociliatine, speciociliatine], the “complex stability constant (Kstab) with Sualfadex” value was 250 ± 45 M⁻¹.

The nature of the next data set: ACE complex stability, Sugammadex. Type of data set: physicochemical. The following applies: octakis(6-deoxy-6-(2-carboxyethyl)thio)-γ-CD, 30 mM phosphate buffer pH 7.4, 25 °C. As to the method: as §1
The ACE experiments were performed by using Agilent 7100 and HP^3DCE instruments (Agilent Technologies, Waldbronn, Germany). Untreated fused silica capillaries (total length of 48.5 cm, effective length of 40 cm, inner diameter of 50 μm) were purchased from Agilent Technologies. The new capillaries were conditioned with a 1 M NaOH wash for 1 h, followed by a 30 min wash each with 0.1 M NaOH and purified water. Prior to all runs, the capillary was preconditioned by rinsing with background electrolyte for 3 min. During the measurements, 30 mM phosphate buffer at pH 7.4 (30 mM Na2HPO4-NaOH) was used. The background electrolyte contained CDs at various concentrations. […] The electropherograms were recorded at four wavelengths (200 nm, 210 nm, 215 nm, and 220 nm), and the data were evaluated at 215 nm. […] The measurements were evaluated using Origin and CEval software (v. 0.6i3). […]
On to `CC[C@@H]1CN2CCc3c([nH]c4cccc(OC)c34)[C@H]2C[C@@H]1/C(=C\OC)C(=O)OC` [Speciociliatine, speciociliatine], for which the “complex stability constant (Kstab) with Sugammadex” value came to 700 ± 45 M⁻¹.

A short description of a further data set: ACE complex stability, Succ-β-CD. Format: physicochemical. The following applies: succinyl-β-CD DS~6, 30 mM phosphate buffer pH 7.4, 25 °C. As to the method:
as §1, §2, §3, §4, §5
As to `CC[C@@H]1CN2CCc3c([nH]c4cccc(OC)c34)[C@H]2C[C@@H]1/C(=C\OC)C(=O)OC` [Speciociliatine, speciociliatine], the “complex stability constant (Kstab) with Succ-β-CD” value was 470 ± 35 M⁻¹.

Another data set in a line: ACE complex stability, SBE-β-CD DS~4. Format: physicochemical. As to conditions: sulfobutyl-ether-β-CD DS~4, 30 mM phosphate buffer pH 7.4, 25 °C. On the procedure:
as §1, §2, §3, §4, §5
For the molecule `CC[C@@H]1CN2CCc3c([nH]c4cccc(OC)c34)[C@H]2C[C@@H]1/C(=C\OC)C(=O)OC` [Speciociliatine, speciociliatine], the “complex stability constant (Kstab) with SBE-β-CD DS~4” value worked out at 670 ± 60 M⁻¹.

A further data set is described as follows: ACE complex stability, HS-β-CD. Format: physicochemical. As to conditions: heptakis-(6-O-sulfo)-β-CD, 30 mM phosphate buffer pH 7.4, 25 °C. On the procedure: as §1, §2
In order to determine the complex stability constants that characterized the strength of the complexes, the first step was to determine the effective mobility of the analyte at specific CD concentrations. Triangular peaks caused by electromigration dispersion are often observed in ACE measurements. […]
As to `CC[C@@H]1CN2CCc3c([nH]c4cccc(OC)c34)[C@H]2C[C@@H]1/C(=C\OC)C(=O)OC` [Speciociliatine, speciociliatine], the “complex stability constant (Kstab) with HS-β-CD” value is 850 ± 30 M⁻¹.

A further data set is described as follows: ACE complex stability, HxDMS-α-CD. As to conditions: hexakis-(2,3-O-dimethyl, 6-O-sulfo)-α-CD, 30 mM phosphate buffer pH 7.4, 25 °C. Type of data set: physicochemical. On the procedure:
as §1, §2, §3, §4, §5
In the case of `CC[C@@H]1CN2CCc3c([nH]c4cccc(OC)c34)[C@H]2C[C@@H]1/C(=C\OC)C(=O)OC` [Speciociliatine, speciociliatine], the “complex stability constant (Kstab) with HxDMS-α-CD” value worked out at 240 ± 20 M⁻¹.

The next data set can be described thus: ACE complex stability, HDMS-β-CD. Type of data set: physicochemical. As to conditions: heptakis-(2,3-O-dimethyl, 6-O-sulfo)-β-CD, 30 mM phosphate buffer pH 7.4, 25 °C. As to the method:
as §1, §2, §3, §4, §5
`CC[C@@H]1CN2CCc3c([nH]c4cccc(OC)c34)[C@H]2C[C@@H]1/C(=C\OC)C(=O)OC` [Speciociliatine, speciociliatine]: the “complex stability constant (Kstab) with HDMS-β-CD” value amounted to 105 ± 12 M⁻¹.

A further data set is described as follows: ACE complex stability, HMDiSu-β-CD. Format: physicochemical. The following applies: heptakis-(2-O-methyl, 3,6-O-disulfo)-β-CD, 30 mM phosphate buffer pH 7.4, 25 °C. On the procedure: as §1, §2, §3, §4, §5
On to `CC[C@@H]1CN2CCc3c([nH]c4cccc(OC)c34)[C@H]2C[C@@H]1/C(=C\OC)C(=O)OC` [Speciociliatine, speciociliatine], for which the “complex stability constant (Kstab) with HMDiSu-β-CD” value is 100 ± 1 M⁻¹.

Another data set is described as follows: ACE complex stability, MA-β-CD. As to conditions: mono-(6-N-amino-6-deoxy)-β-CD, positively charged, 30 mM phosphate buffer pH 7.4, 25 °C. Type of data set: physicochemical. On the procedure:
as §1, §2, §3, §4, §5
`CC[C@@H]1CN2CCc3c([nH]c4cccc(OC)c34)[C@H]2C[C@@H]1/C(=C\OC)C(=O)OC` [Speciociliatine, speciociliatine]: the “complex stability constant (Kstab) with MA-β-CD” value was less than 10 M⁻¹.

A further data set can be described thus: ACE complex stability, HPA-β-CD. Type of data set: physicochemical. As to conditions: mono-6^A-(3-hydroxy)propylamino-β-CD, positively charged, 30 mM phosphate buffer pH 7.4, 25 °C. On the procedure:
as §1, §2, §3, §4, §5
`CC[C@@H]1CN2CCc3c([nH]c4cccc(OC)c34)[C@H]2C[C@@H]1/C(=C\OC)C(=O)OC` [Speciociliatine, speciociliatine]: the “complex stability constant (Kstab) with HPA-β-CD” value is less than 10 M⁻¹.

A short description of the next data set: ACE complex stability, PYR-β-CD. Type of data set: physicochemical. As to conditions: 6-monodeoxy-6-pyrrolidine-β-CD, positively charged, 30 mM phosphate buffer pH 7.4, 25 °C. As to the method: as §1, §2, §3, §4, §5
In the case of `CC[C@@H]1CN2CCc3c([nH]c4cccc(OC)c34)[C@H]2C[C@@H]1/C(=C\OC)C(=O)OC` [Speciociliatine, speciociliatine], the “complex stability constant (Kstab) with PYR-β-CD” value was less than 10 M⁻¹.

The nature of the next data set: ACE complex stability, PIP-β-CD. Format: physicochemical. As to conditions: 6-monodeoxy-6-piperidine-β-CD, positively charged, 30 mM phosphate buffer pH 7.4, 25 °C. On the procedure: as §1, §2, §3, §4, §5
On to `CC[C@@H]1CN2CCc3c([nH]c4cccc(OC)c34)[C@H]2C[C@@H]1/C(=C\OC)C(=O)OC` [Speciociliatine, speciociliatine], for which the “complex stability constant (Kstab) with PIP-β-CD” value was less than 10 M⁻¹.

The nature of another data set: ACE complex stability, MePYR-β-CD. The following applies: mono-6^A-(N-methyl-pyrrolidine)-β-CD, positively charged, 30 mM phosphate buffer pH 7.4, 25 °C. Type of data set: physicochemical. On the procedure: as §1, §2, §3, §4, §5
Take `CC[C@@H]1CN2CCc3c([nH]c4cccc(OC)c34)[C@H]2C[C@@H]1/C(=C\OC)C(=O)OC` [Speciociliatine, speciociliatine]: the “complex stability constant (Kstab) with MePYR-β-CD” value was less than 10 M⁻¹.

The next data set in a line: ACE complex stability, MePIP-β-CD. Type of data set: physicochemical. As to conditions: mono-6^A-(N-methyl-piperidine)-β-CD, positively charged, 30 mM phosphate buffer pH 7.4, 25 °C. On the procedure: as §1, §2, §3, §4, §5
As to `CC[C@@H]1CN2CCc3c([nH]c4cccc(OC)c34)[C@H]2C[C@@H]1/C(=C\OC)C(=O)OC` [Speciociliatine, speciociliatine], the “complex stability constant (Kstab) with MePIP-β-CD” value was less than 10 M⁻¹.
